Measured values taken from US7504517B2, “Kv1.5 potassium channel inhibitors” (Wyeth, priority 2006, dated 2009).
Where a name gives a salt, the structure may show the parent alone.

biological target: T1, Kv1.5 (Homo sapiens, UniProt P22460); experiment: Kv1.5 Patch Clamp EP; format: cell-based; conditions: 1.0 μM, single point; whole cell patch clamp, Kv1.5 stably over expressed in HEK or LTK- cells
T1 construct: expressed in transfected cells; host or cells: HEK or LTK- cells
Description: The external solution is standard Tyrodes solution. […] Inhibition was measured at the end of the 1 second pulses and expressed relative to controls. Initial Kv1.5 inhibition is estimated by single point determinations done at 1 μM.

T1 sequence (P22460 whole entry): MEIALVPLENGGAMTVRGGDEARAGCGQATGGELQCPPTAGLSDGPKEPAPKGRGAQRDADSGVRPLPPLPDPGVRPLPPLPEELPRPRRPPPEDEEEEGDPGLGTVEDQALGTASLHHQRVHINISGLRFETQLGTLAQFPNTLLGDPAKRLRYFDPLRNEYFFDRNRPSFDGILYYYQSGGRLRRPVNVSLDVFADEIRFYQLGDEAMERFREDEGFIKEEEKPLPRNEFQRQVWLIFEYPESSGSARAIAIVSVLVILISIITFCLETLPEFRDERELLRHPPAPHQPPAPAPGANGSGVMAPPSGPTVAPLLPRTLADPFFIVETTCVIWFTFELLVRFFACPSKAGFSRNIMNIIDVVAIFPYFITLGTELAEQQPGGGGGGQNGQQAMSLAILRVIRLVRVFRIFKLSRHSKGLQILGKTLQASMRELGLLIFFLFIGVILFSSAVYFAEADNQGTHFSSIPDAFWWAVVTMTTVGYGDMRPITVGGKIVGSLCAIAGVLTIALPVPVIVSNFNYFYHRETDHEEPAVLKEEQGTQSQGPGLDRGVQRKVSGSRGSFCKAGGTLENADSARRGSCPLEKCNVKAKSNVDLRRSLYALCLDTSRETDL

| SMILES | inhibition at 1 µM [%] |
| --- | --- |
| COc1ccc(C2CN(N)C(=O)N2CCc2ccc(OC(F)F)cc2)cc1 (stereo not shown) [Compound 154, 1-amino-3-{2-[4-(difluoromethoxy)phenyl]ethyl}-4-(4-methoxyphenyl)imidazolidin-2-one] | 7 |
| COc1ccc(CCN2C(=O)N(NCc3cc[n+]([O-])cc3)CC2c2ccc(C)c(C)c2)cc1 (stereo not shown) [Compound 161, 4-(3,4-dimethylphenyl)-3-[2-(4-methoxyphenyl)ethyl]-1-{[(1-oxidopyridin-4-yl)methyl]amino}imidazolidin-2-one] | 8 |
| CCC1(CC)CN(NS(=O)(=O)Cc2cccnc2)C(=O)N1CCc1ccc(OC)cc1 [Compound 162, N-{4,4-diethyl-3-[2-(4-methoxyphenyl)ethyl]-2-oxoimidazolidin-1-yl}-1-pyridin-3-ylmethanesulfonamide] | 8 |
| COc1ccc(CCN2C(=O)N(N3CCN(C(N)=O)CC3)CC2c2ccc(C(C)(C)C)cc2)cc1 (stereo not shown) [Compound 150, 4-{4-(4-tert-butylphenyl)-3-[2-(4-methoxyphenyl)ethyl]-2-oxoimidazolidin-1-yl}piperazine-1-carboxamide] | 17 |
| COc1ccc(CCN2C(=O)N(NS(=O)(=O)CC(N)=O)CC2c2ccc(OC)cc2)cc1 (stereo not shown) [Compound 115, 2-({4-(4-methoxyphenyl)-3-[2-(4-methoxyphenyl)ethyl]-2-oxoimidazolidin-1-yl}sulfamoyl)acetamide] | 5 |
| COc1ccc(CCN2C(=O)N(NS(=O)(=O)CC(=O)NC3CC3)CC2c2ccc(OC)cc2)cc1 (stereo not shown) [Compound 56, 1-[[2-(Cyclopropylamino)-2-oxoethyl]sulfonylamino]-3-[2-(4-methoxyphenyl)-ethyl]-4-(4-methoxyphenyl)-2-imidazolidinone] | 39 |
| COc1ccc(CCN2C(=O)N(NC(=O)Cc3cccnc3)CC2c2ccc(C3CC3)cc2)cc1 (stereo not shown) [Compound 122, N-{4-(4-cyclopropylphenyl)-3-[2-(4-methoxyphenyl)ethyl]-2-oxoimidazolidin-1-yl}-2-pyridin-3-ylacetamide] | 36 |
| COc1ccc(CCN2C(=O)N(NS(C)(=O)=O)CC2Cc2ccc(F)cc2)cc1 (stereo not shown) [Compound 120, N-{4-(4-fluorobenzyl)-3-[2-(4-methoxyphenyl)ethyl]-2-oxoimidazolidin-1-yl}methanesulfonamide] | 5 |
| COc1ccc(C2CN(NS(C)(=O)=O)C(=O)N2CCCc2ccccc2)cc1 (stereo not shown) [Compound 46, 1-(Methylsulfonylamino)-3-(3-phenylpropyl)-4-(4-methoxyphenyl)-2-imidazolidinone] | 40 |
| COc1ccc(CCN2C(=O)N(N3CCN(C(=O)N(C)C)CC3)CC2c2ccc(C(C)(C)C)cc2)cc1 (stereo not shown) [Compound 130, 4-{4-(4-tert-butylphenyl)-3-[2-(4-methoxyphenyl)ethyl]-2-oxoimidazolidin-1-yl}-N,N-dimethylpiperazine-1-carboxamide] | 37 |
| COc1ccc(CCN2C(=O)N(NS(C)(=O)=O)CC2c2ccc3c(c2)OC(F)(F)O3)cc1 (stereo not shown) [Compound 16, 1-(Methylsulfonylamino)-3-[2-(4-methoxyphenyl)ethyl]-4-(2,2-difluorobenzo-[1,3]dioxol-5-yl)-2-imidazolidinone] | 48 |
| COc1ccc(CCN2C(=O)N(NS(C)(=O)=O)CC2c2ccc3ncccc3c2)cc1 (stereo not shown) [Compound 143, N-{3-[2-(4-methoxyphenyl)ethyl]-2-oxo-4-quinolin-6-ylimidazolidin-1-yl}methanesulfonamide] | 21 |
| COc1ccc(CCN2C(=O)N(NS(C)(=O)=O)CC2C2(c3ccccc3)CC2)cc1 (stereo not shown) [Compound 140, N-{3-[2-(4-methoxyphenyl)ethyl]-2-oxo-4-(1-phenylcyclopropyl)imidazolidin-1-yl}methanesulfonamide] | 6 |
| COc1ccc(CCN2C(=O)N(N)CC2c2ccc(OC(C)C)cc2)cc1 (stereo not shown) [Compound 164, 1-amino-4-(4-isopropoxyphenyl)-3-[2-(4-methoxyphenyl)ethyl]imidazolidin-2-one] | 2 |
| COc1ccc(CCN2C(=O)N(NS(=O)(=O)Cc3cccnc3)CC2c2ccc(F)cc2)cc1 (stereo not shown) [Compound 139, N-{4-(4-fluorophenyl)-3-[2-(4-methoxyphenyl)ethyl]-2-oxoimidazolidin-1-yl}-1-pyridin-3-ylmethanesulfonamide] | 14 |
| COc1ccc(CCN2C(=O)N(N)CC2C2(c3ccc(F)cc3)CC2)cc1 (stereo not shown) [Compound 163, 1-amino-4-[1-(4-fluorophenyl)cyclopropyl]-3-[2-(4-methoxyphenyl)ethyl]imidazolidin-2-one] | 16 |
| COc1ccc(CCN2C(=O)N(NC(=O)c3cnccn3)CC2c2ccc(C(C)(C)C)cc2)cc1 (stereo not shown) [Compound 147, N-{4-(4-tert-butylphenyl)-3-[2-(4-methoxyphenyl)ethyl]-2-oxoimidazolidin-1-yl}pyrazine-2-carboxamide] | 42 |
| COc1ccc(CCN2C(=O)N(NS(C)(=O)=O)CC2C2(c3ccc(F)cc3)CC2)cc1 (stereo not shown) [Compound 165, N-{4-[1-(4-fluorophenyl)cyclopropyl]-3-[2-(4-methoxyphenyl)ethyl]-2-oxoimidazolidin-1-yl}methanesulfonamide] | 11 |
| COc1ccc(CCCN2C(=O)N(N)CC2c2ccc(OC)cc2)cc1 (stereo not shown) [Compound 3, 1-Amino-4-(4-methoxyphenyl)-3-[3-(4-methoxyphenyl)propyl]-2-imidazolidinone] | 13 |
| CNC(=O)N1CCN(N2CC(c3ccc(C(C)(C)C)cc3)N(CCc3ccc(OC)cc3)C2=O)CC1 (stereo not shown) [Compound 117, 4-{4-(4-tert-butylphenyl)-3-[2-(4-methoxyphenyl)ethyl]-2-oxoimidazolidin-1-yl}-N-methylpiperazine-1-carboxamide] | 19 |
| COc1ccc(CCN2C(=O)N(NCCn3ccnc3)CC2c2ccc(C(C)(C)C)cc2)cc1 (stereo not shown) [Compound 121, 4-(4-tert-butylphenyl)-1-{[2-(1H-imidazol-1-yl)ethyl]amino}-3-[2-(4-methoxyphenyl)ethyl]imidazolidin-2-one] | 7 |
| COc1ccc(CCN2C(=O)N(NS(=O)(=O)CC(=O)N(C)CC(=O)N(C)C)CC2c2ccc(C3CC3)cc2)cc1 (stereo not shown) [Compound 132, 2-(N-(4-(4-cyclopropylphenyl)-3-(4-methoxyphenethyl)-2-oxoimidazolidin-1-yl)sulfamoyl)-N-(2-(dimethylamino)-2-oxoethyl)-N-methylacetamide] | 3 |
| COc1ccc(CCN2C(=O)N(NS(N)(=O)=O)CC2c2ccc(OC)cc2)cc1 (stereo not shown) [Compound 167, N-{4-(4-methoxyphenyl)-3-[2-(4-methoxyphenyl)ethyl]-2-oxoimidazolidin-1-yl}sulfamide] | 36 |
| COc1ccc(CCN2C(=O)N(N)CC2c2ccc(OC(F)F)cc2)cc1 (stereo not shown) [Compound 5, 1-Amino-3-[2-(4-methoxyphenyl)ethyl]-4-(4-difluoromethoxyphenyl)-2-imidazolidinone 4-methylbenzenesulfonic acid salt] | 36 |
| COc1ccc(CCN2C(=O)N(NCC3CC3)CC2c2ccc(C)c(C)c2)cc1 (stereo not shown) [Compound 86, 1-(Cyclopropylmethylamino)-3-[2-(4-methoxyphenyl)ethyl]-4-(3,4-dimethylphenyl)-2-imidazolidinone] | 20 |
